{
  "source": "patent US20050119352A1",
  "about": "“Method of treating cancers” (priority 2002, published 2005)",
  "key": {"[1]": {"test_system": "ARH-77 cells, a human multiple myeloma cell line", "experiment": "MTT cell survival assay in ARH-77 multiple myeloma cells", "method": "β-lapachone was dissolved at 20 mM concentration in dimethyl sulfoxide (DMSO), aliquoted, and stored at −20° C. for cell culture use. Imatinib was dissolved at 100 mM concentration in dimethyl sulfoxide (DMSO).\nEach well was treated with β-lapachone and/or imatinib. Each condition was run in triplicate. […] The plates were read using a plate reader at 570 nm."}, "[2]": {"test_system": "K562 cells (human chronic myelogenous leukemia cell line), imatinib-resistant", "experiment": "MTT cell survival assay in K562 CML cells, imatinib-resistant line", "type": "cell-based", "settings": "48 hours; for % Viability: Imatinib 0 μM", "method": "(§1) K562 cells (a human chronic myelogenous leukemia (CML) cell line), were suspended in RPMI 1640 Medium (Life Technologies Inc.), supplemented with 10% FCS, 2 mM L-glutamine in 96-well plates (2×10^4 cells per well). Both an imatinib-sensitive and an imatinib-resistant cell line were used. Each well was treated with β-lapachone and/or imatinib. Each condition was run in triplicate. After incubation for 48 hours, cell survival was assayed using MTT to determine cell survival. The plates were read using a plate reader at 570 nm."}, "[3]": {"test_system": "K562 cells (human chronic myelogenous leukemia cell line), imatinib-sensitive", "experiment": "MTT cell survival assay in K562 CML cells, imatinib-sensitive line", "method": "as §1"}, "[4]": {"settings": "cited from earlier work"}, "[5]": {"test_system": "transplanted human mammary carcinoma", "settings": "cited from earlier work"}},
  "note": "Read-outs that look alike come from different tables or passages of the source.",
  "data": [
    {"compound": "Cc1ccc(NC(=O)c2ccc(CN3CCN(C)CC3)cc2)cc1Nc1nccc(-c2cccnc2)n1", "note": "[imatinib, Imatinib]", "values": [
      {"measurement": "% Viability", "setting": "[1]; STI571 1 μM, Co-501 0 μM, 24 hours", "result": 66.3, "unit": "%"},
      {"measurement": "% Viability", "setting": "[1]; STI571 2 μM, Co-501 0 μM, 24 hours", "result": 80.0, "unit": "%"},
      {"measurement": "% Viability", "setting": "[1]; STI571 5 μM, Co-501 0 μM, 24 hours", "result": 85.7, "unit": "%"},
      {"measurement": "% Viability", "setting": "[1]; STI571 10 μM, Co-501 0 μM, 24 hours", "result": 91, "unit": "%"},
      {"measurement": "% Viability", "setting": "[1]; STI571 20 μM, Co-501 0 μM, 24 hours", "result": 47, "unit": "%"},
      {"measurement": "% Viability", "setting": "[1]; STI571 20 μM, Co-501 0 μM, 24 hours, listed as STI571", "result": 46.7, "unit": "%"},
      {"measurement": "% Viability", "setting": "[1]; STI571 50 μM, Co-501 0 μM, 24 hours", "result": 10.0, "unit": "%"},
      {"measurement": "viability at 1 µM", "setting": "[2]; Homo sapiens, K562, Imatinib 1 μM, B-lapachon 0 μM", "result": 94.7, "unit": "%"},
      {"measurement": "viability at 5 µM", "setting": "[2]; Homo sapiens, K562, Imatinib 5 μM, B-lapachon 0 μM", "result": 57.3, "unit": "%"},
      {"measurement": "viability at 10 µM", "setting": "[2]; Homo sapiens, K562, Imatinib 10 μM, B-lapachon 0 μM", "result": 22.5, "unit": "%"},
      {"measurement": "viability at 20 µM", "setting": "[2]; Homo sapiens, K562, Imatinib 20 μM, B-lapachon 0 μM", "result": 11.5, "unit": "%"},
      {"measurement": "viability at 40 µM", "setting": "[2]; Homo sapiens, K562, Imatinib 40 μM, B-lapachon 0 μM", "result": 4.9, "unit": "%"},
      {"measurement": "sensitivity to imatinib alone, compared with imatinib-sensitive line", "setting": "[2]; imatinib alone", "result": "less sensitivity"},
      {"measurement": "viability at 0.5 µM", "setting": "[3]; Homo sapiens, K562, 48 h", "result": 57.2, "unit": "%"},
      {"measurement": "viability at 1 µM", "setting": "[3]; Homo sapiens, K562, 48 h", "result": 36.6, "unit": "%"},
      {"measurement": "viability at 5 µM", "setting": "[3]; Homo sapiens, K562, 48 h", "result": 20.9, "unit": "%"},
      {"measurement": "viability at 10 µM", "setting": "[3]; Homo sapiens, K562, 48 h", "result": 13.9, "unit": "%"},
      {"measurement": "viability at 20 µM", "setting": "[3]; Homo sapiens, K562, 48 h", "result": 0.9, "unit": "%"}
    ]},
    {"compound": "CC1(C)CCC2=C(O1)c1ccccc1C(=O)C2=O", "note": "[β-lapachone, 3,4-dihydro-2,2-dimethyl-2H-naphtho[1,2-b]pyran-5,6-dione]", "values": [
      {"measurement": "viability at 1 µM", "setting": "[1]; Homo sapiens, ARH-77, 24 h, STI571 0 μM, Co-501 1 μM, 24 hours", "result": 91, "unit": "%"},
      {"measurement": "viability at 2 µM", "setting": "[1]; Homo sapiens, ARH-77, 24 h, STI571 0 μM, Co-501 2 μM, 24 hours", "result": 34, "unit": "%"},
      {"measurement": "viability at 4 µM", "setting": "[1]; Homo sapiens, ARH-77, 24 h, STI571 0 μM, Co-501 4 μM, 24 hours", "result": 40, "unit": "%"},
      {"measurement": "% Viability", "setting": "[1]; STI571 0 μM, Co-501 2 μM, 24 hours", "result": 34.3, "unit": "%"},
      {"measurement": "% Viability", "setting": "[1]; human, 24 h, 1 μM", "result": 91.4, "unit": "%"},
      {"measurement": "% Viability", "setting": "[2]; B-lapachon 0.5 μM", "result": 80.5, "unit": "%"},
      {"measurement": "% Viability", "setting": "[2]; B-lapachon 1 μM", "result": 79, "unit": "%"},
      {"measurement": "% Viability", "setting": "[2]; B-lapachon 2 μM", "result": 45, "unit": "%"},
      {"measurement": "% Viability", "setting": "[2]; B-lapachon 4 μM", "result": 0.56, "unit": "%"},
      {"measurement": "water solubility", "setting": "[4]", "result": "water insolubility"},
      {"measurement": "% Viability", "setting": "[3]; Imatinib 0 μM, B-lapachone 1 μM, 48 hours", "result": 36.2, "unit": "%"},
      {"measurement": "% Viability", "setting": "[3]; Imatinib 0 μM, B-lapachone 2 μM, 48 hours", "result": 11.9, "unit": "%"},
      {"measurement": "% Viability", "setting": "[3]; Imatinib 0 μM, B-lapachone 4 μM, 48 hours", "result": 1.0, "unit": "%"},
      {"measurement": "% Viability", "setting": "[3]; human, 48 h, 0.5 μM", "result": 58.3, "unit": "%"}
    ]},
    {"compound": "O=CN/C=C/c1cc(O)ccc1O", "note": "[erbstatin]", "values": [
      {"measurement": "tumor growth", "setting": "[5]; another carcinoma which does not express the EGF receptor", "result": "without effect"},
      {"measurement": "tumor growth", "setting": "[5]; carcinoma which expresses epidermal growth factor receptor tyrosine kinase, athymic nude mice", "result": "selectively attenuates the growth"}
    ]}
  ]
}
